Data set [1] deals with C6 cells. Briefly: Mitochondrial membrane potential (MMP) dependent uptake of FTPP in C6 cells (CCCP, valinomycin, high K+ Hepes buffer). The class given is cell-based, rat. The protocol:
The extent of MMP and cell membrane potential-dependent cellular uptake of FTPP was further assessed using the C6 cells treated with CCCP, valinomycin, and high K^+ Hepes buffer (5 mM NaCl/135 mM KCl/1.8 mM CaCl2/0.8 mM MgSO4/50 mM Hepes/5.5 mM dextrose, pH 7.4). Carbonylcyanide-m-chlorophenylhydrazone (CCCP), a known protonphore that selectively abolishes the MMP,^26 was dissolved in dimethyl sulfoxide (DMSO) and diluted to desired concentration with low K^+ Hepes buffer. K^+-ionophore valinomycin was dissolved in ethanol and also diluted with low K^+ buffer. Final concentrations of ethanol and DMSO were below 0.1%. Varying concentrations of CCCP and valinomycin were added to the 0.5×10^6 cells in low K^+ Hepes buffer 30 min prior to the start of the experiment. After 1 hr of incubation with 5 μM FTPP, the eppendorf vials were centrifuged, cell lysate were prepared as described above, and the cell uptakes of FTPP were determined using MALDI-TOF-MS. Five sets of 0.5×10^6 cells were also suspended in high K^+ Hepes buffer for 60 min, then exposed to 5 μM FTPP for 10-90 min in high K^+ Hepes buffer. Cell uptake of FTPP was measured by MALDI-TOF-MS. The viability and the integrity of the cells after treatment with inhibitors and high K^+ buffer were examined using Trypan blue.

Data set [2] relates to C6 cells. Kind of data set: C6 cell uptake of phosphonium cations determined by MALDI-TOF-MS. The following applies: 5 μM; for rank of uptake in C6 cells among the compounds tested: 25° C. Type of data set: cell-based, rat. The protocol: A rat glioma C6 cell line was grown in Dulbecco's modified Eagle medium (DMEM, Invitrogen Life Technologies, Carlsbad, Calif.) high glucose (containing KCl 5.3 mmol/L and NaCl 110.34 mmol/L) plus 10% fetal bovine serum (FBS), and 1% penicillin-streptomycin at 37° C. in 5% CO2/95% air. After trypsinization, cells were washed with 0.01 M phosphate-buffered saline (PBS, pH=7.4) twice and suspended at 10×10^6 cells /mL in low K^+ Hepes buffer (135 mM NaCl/5 mM KCl/1.8 mM CaCl2/0.8 mM MgSO4/50 mM Hepes [4-(-2-hydroxyethyl)-1-piperazineethanesulfonic acid]/5.5 mM dextrose, pH 7.4). 50 μL (0.5×10^6) of C6 cells were incubated with 10 μL 100 μM stock phosphonium salts solution ([…], the structures of these phosphonium cations are shown in FIG. 1) and 140 μL Hepes buffer from 10 to 90 min at room temperature. The cells were centrifuged (250×g) for three minutes and washed twice with cold PBS buffer at specified times. Cell pellets were then lysed with 150 μL cold spectral grade water, following by freezing in dry ice. Right before the MALDI-TOF-MS analysis, the frozen cell solution was thawed and centrifuged at 12000×g for 5 min. 90 μL cell lysate and 10 μL 10 μM internal standard MeTPP were mixed together, and 1 μL solution was subjected to MALDI-TOF-MS analysis. Samples were prepared and analyzed in triplicate.

The nature of data set [3]: MicroPET imaging, biodistribution and pharmacokinetic in normal nude mice. Type of data set: in vivo, mouse. The following applies: for heart uptake / liver uptake: tail vein, microPET ROI. How it is done:
PET imaging of normal nude mice was performed on a microPET R4 rodent model scanner (Concorde Microsystems Inc, Knoxville, Tenn.). The mice were injected with about 10-20 μCi of [^18F]FTPP via the tail vein. At 30 min, 1 hr, 2 hr, and 4 hr post injection, the mice were anesthetized with 2% isoflurane and placed in the prone position and near the center of the filed of view of microPET. The 10-min static scans were obtained, and the images were reconstructed by a two-dimensional ordered subsets expectation maximum (OSEM) algorithm. Regions of interest (ROIs) were then drawn over the […] on decay-corrected whole-body coronal images. The counts per pixel per minute were obtained from the ROI and converted to counts per milliliter per minute by using a calibration constant. By assuming a tissue density of 1 g/mL, the ROIs were converted to counts/g/min. An image ROI-derived percentage ID per gram of tissue (% ID/g) was then determined by dividing counts per gram per minute with injected dose (ID).

SMILES strings stand for the structures.

For `Fc1ccc([P+](c2ccccc2)(c2ccccc2)c2ccccc2)cc1` [FTPP, 4-Fluorophenyltriphenyl phosphonium], the “FTPP uptake (normalized) in presence of valinomycin” value in the data set on C6 cells [1] (10 μM valinomycin, 5 μM FTPP, 1 hr, low K+ Hepes buffer) is “about 72.8±3.6%”. Also, the “FTPP uptake (normalized) in presence of CCCP” value with C6 cells [1] (50 μM CCCP, 5 μM FTPP, 1 hr, low K+ Hepes buffer) was “about 27.3±2.3%”. Also, the “effect of CCCP or valinomycin on uptake” value with C6 cells [1] (CCCP 0.1-50 μM, valinomycin 0.1-10 μM, low K+ Hepes buffer) was “inhibited by CCCP or valinomycin in dose-dependent manners”. For the same compound, the “decrease in uptake on depolarization of the plasma membrane (high K+ vs low K+ buffer)” value in the data set with C6 cells [1] (high K+ Hepes buffer, 90 min exposure time, 5 μM FTPP) came out at 3.5 fold. The “rank of uptake in C6 cells among the compounds tested” value in the data set on C6 cells [2] stood at 2nd place. Besides, the “uptake in C6 cells as percentage of the TPP uptake” value in the data set on C6 cells [2] (glioma C6 cells in vitro, MALDI-TOF-MS) is given as 80%.
For `[18F]c1ccc([P+](c2ccccc2)(c2ccccc2)c2ccccc2)cc1` [[^18F]FTPP, (4-[^18F]fluorophenyl)triphenylphosphonium], in data set [3] (30 minutes pi), the heart uptake is 5.59±0.93 % ID/g and the liver uptake worked out at 7.39±0.36 % ID/g. Moreover, in data set [3] (4 h pi), the heart uptake came out at 3.89±0.29 % ID/g and the liver uptake came out at 2.79±0.59 % ID/g. In data set [3] (female nude mouse, 15 μCi), the “localization in microPET images” value is listed as “clearly localized in the heart” and the “route of clearance” value is reported as “mainly cleared out through hepatobiliary system”.
In the case of `[Br-].c1ccc([P+](c2ccccc2)(c2ccccc2)c2ccccc2)cc1` [TPP, tetraphenylphosphonium bromide, reference compound], in the data set with C6 cells [2], the “rank of uptake in C6 cells among the compounds tested” value is recorded as “highest uptake”.
